{"source": "patent US20060270709A1", "about": "(priority 2005, published 2006)", "key": {"[1]": {"system": "AMPA-mediated neurodegeneration in CA1 region of organotypic hippocampal slice cultures", "experiment": "AMPA toxicity in organotypic hippocampal slice cultures (PI fluorescence in CA1)", "assay_type": "cell-based, Wistar rat", "protocol": "(§1) Organotypic hippocampal slice cultures were prepared using the basic method of Pringle et al, Brain Research, 755:36-46 (1997) modified as follows. Wistar rat pups (8-11 days old) were decapitated and the hippocampus rapidly dissected into ice-cold Gey's balanced salt solution supplemented with 4.5 mg/ml glucose. Transverse sections (400 μm) were cut on a McIlwain tissue chopper and placed back into ice-cold Gey's balanced salt solution. Slices were separated and plated onto Millicell CM culture inserts (4 per well) and maintained at 37° C./5% CO2 for 14 days. […] Medium was changed every 3-4 days.\n(§2) PI fluorescence was detected using a Leica DMIL inverted microscope fitted with a rhodamine filter set. Any cultures in which PI fluorescence was detected at this stage were excluded from further study. […] Neuronal damage was assessed by PI fluorescence imaging 24 hours after the initiation of the neurotoxic insult. Neurotoxicity protocols are outlined below.\n(1) AMPA: Cultures were transferred to fresh SFM (+PI) containing 30 μM S-AMPA for 3 hours under normal culture conditions. At the end of this period, cultures were returned to fresh SFM for 21 hours prior to determination of neuronal death by PI imaging. GYK152466 (30 μM) was used as a positive, neuroprotective control.\n(§3) Neuronal damage was assessed using ImageJ software running on a PC. Images were captured using a monochrome CCD camera and saved for otlline analysis. Light transmission images were captured prior to the addition of drugs, and PI fluorescence images recorded at the end of the 24-hour recovery period. The area of the CA1 region was determined from the transmission image. The area of PI fluorescence in the CA1 was measured using the threshold function on ImageJ, and neuronal damage expressed as the percentage of the CA1 in which PI fluorescence was detected above background. Morrison et al, Br. J. Pharmacol., 137:1255-1268 (2002)."}, "[2]": {"system": "duroquinone-induced injury in CA1 region of organotypic hippocampal slice cultures", "experiment": "Free radical-mediated toxicity (duroquinone) in organotypic hippocampal slice cultures", "assay_type": "cell-based, Wistar rat", "settings": "100 μM duroquinone 3 hours, duroquinone alone 51.0±3.4%", "protocol": "as §1\nas §2, with “below. […]” for “below.”\n(§4) Neuronal damage was assessed using ImageJ software running on a PC. […] Light transmission images were captured prior to the addition of drugs, and PI fluorescence images recorded at the end of the 24-hour recovery period. The area of the CA1 region was determined from the transmission image. […]"}, "[3]": {"system": "OGD-induced neurotoxicity in CA1 region of organotypic hippocampal slice cultures", "experiment": "Oxygen-glucose deprivation (OGD) in organotypic hippocampal slice cultures (PI fluorescence in CA1)", "assay_type": "cell-based, Wistar rat", "protocol": "as §1, §2\n(2) Oxygen-Glucose Deprivation (OGD): Experimental ischaemia was performed by exposing cultures to oxygen-glucose deprivation (OGD) as described previously. Pringle et al, Brain Research, 755:36-46 (1997); Pringle et al, Stroke, 27:2124-2130 (1996); Morrison et al, Br. J. Pharmacol., 137:1255-1268 (2002). OGD was induced by transferring cultures to glucose-free SFM (+PI) which had been saturated with 95% N2/5% CO2. Culture plates (without lids) were then sealed into an airtight chamber in which the atmosphere was saturated with 95% N2/5% CO2 by continuously blowing through gas at 10 L/min for ten minutes before being sealed and placed in the incubator for 50 mins (total time of OGD was therefore 60 mins). At the end of the period of OGD cultures were returned to normoxic SFM containing PI and placed back in the incubator for 23 hours.\nas §3"}, "[4]": {"system": "hypoxia-induced neurodegeneration in CA1 region of organotypic hippocampal slice cultures", "experiment": "Hypoxia-induced neurodegeneration in organotypic hippocampal slice cultures", "assay_type": "cell-based, Wistar rat", "protocol": "as §1, §2\n(3) Hypoxia: Hypoxia was performed by exposing cultures to oxygen-deprivation as described previously. Pringle et al, Brain Research, 755:36-46 (1997); Pringle et al, Stroke, 27:2124-2130 (1996). Hypoxia was induced by transferring cultures to SFM (+PI) which had been saturated with 95% N2/5% CO2. Culture plates (without lids) were then sealed into an airtight chamber in which the atmosphere was saturated with 95% N2/5% CO2 by continuously blowing through gas at 10 L/min for ten minutes before being sealed and placed in the incubator for 170 mins (total time of hypoxia was therefore 180 mins). At the end of the period of hypoxia, cultures were returned to normoxic SFM (+PI) and placed back in the incubator for 21 hours. The freeradical scavenger MnTBAP (100 μM) was used as a positive neuroprotective control.\nas §3"}, "[5]": {"system": "NMDA-induced neural toxicity in cortical neurons", "experiment": "NMDA-induced neural toxicity in cortical neurons (LDH release)", "assay_type": "cell-based, rat (Wistar, fetal)", "settings": "200 μM NMDA 24 h", "protocol": "The cortical tissues were dissociated to single cells by gentle trituration. […] The cell suspension was centrifuged at 310×g for 3 min and the resulting pellets were resuspended in the medium described above."}, "[6]": {"system": "NMDA-induced neurotoxicity in CA1 region of organotypic hippocampal slice cultures", "experiment": "NMDA-induced neurotoxicity in organotypic hippocampal slice cultures", "assay_type": "cell-based, Wistar rat", "settings": "10 μM NMDA 3 hours, NMDA alone 35.1±[…]", "protocol": "as §1, §2\nAt the end of this period, cultures were returned to fresh SFM for 21 hours prior to determination of neuronal death by PI imaging.\nas §4"}, "[7]": {"system": "dopamine turnover in mice striatum", "experiment": "Dopamine, DOPAC and HVA content / dopamine turnover in mice striatum (HPLC-ECD)", "assay_type": "in vivo, C57BL/6 mice", "settings": "oral; for dopamine turnover: monotherapy vs combination, mice striatum (FIG. 3)", "description": "C57BL/6 mice (SLC, Shizuoka, Japan) were used for the experiment. […] The two drugs were orally administered by gavage 1 hour before sampling. At the time the mice were sacrificed, both striata were rapidly dissected and were frozen by liquid nitrogen. The samples were subsequently sonicated in 0.5 ml of chilled 0.5 M perchloric acid containing 0.1 M EDTA, and centrifuged at 13000 rpm for 15 min at 4° C. Then monoamine levels were measured by HPLC with electrochemical detection. Supernatant aliquots of 20 μl were separated over an Eicompak SC5-ODS column (3×150 mm; Eicom, Japan) with mobile phase of 17% methanol, 83% 0.1M acetate/citrate buffer (pH 3.5) containing 190 mg/ml sodium 1-octanesulfonate and 50 mg/ml EDTA, and a flow rate of 0.65 ml/min. Peaks of dopamine, DOPAC, HVA, 5-HT, and 5-HIAA were quantified by area integration with PowerChrom (eDAQ, Australia), and concentrations were expressed as nanograms per milligram of striatal tissue."}, "[8]": {"settings": "C57BL/6, mouse, in vivo, po, 1 h"}, "[9]": {"settings": "1 hour before sampling (FIG. 2)"}}, "data": [{"smiles": "N#Cc1ccccc1-c1cc(-c2ccccn2)cn(-c2ccccc2)c1=O", "note": "[2-(2-oxo-1-phenyl-5-pyridin-2-yl-1,2-dihydropyridin-3-yl)benzonitrile]", "values": [{"measurement": "damage in CA1 (PI fluorescence)", "setting": "[1]; 0.1 μM, 30 μM AMPA 3 hours, AMPA alone 65.1±1.7%", "value": "63.9±2.6", "unit": "%"}, {"measurement": "damage in CA1 (PI fluorescence)", "setting": "[1]; 0.3 μM, 30 μM AMPA 3 hours, AMPA alone 65.1±1.7%", "value": "50.4±2.5", "unit": "%"}, {"measurement": "area of PI fluorescence, % of CA1", "setting": "[1]; 0.5 μM, 30 μM AMPA, AMPA alone 62.4±[…]", "value": "33.6±4.0", "unit": "%"}, {"measurement": "damage in CA1 (PI fluorescence)", "setting": "[1]; 3 μM, 30 μM AMPA 3 hours, AMPA alone 65.1±1.7%", "value": "0.1±0.1", "unit": "%"}, {"measurement": "EC50", "setting": "[1]; Rattus norvegicus, 3 h, read-out: EC50 in this model of AMPA toxicity", "value": 500, "unit": "nM"}, {"measurement": "damage in CA1 (PI fluorescence)", "setting": "[2]; 0.5 μM", "value": "69.1±4.0", "unit": "%"}, {"measurement": "damage in CA1 (PI fluorescence)", "setting": "[3]; 0.1 μM, 60 minutes OGD, initial set, OGD alone 50.6±5.2%", "value": "64.4±3.6", "unit": "%"}, {"measurement": "damage in CA1 (PI fluorescence)", "setting": "[3]; 0.5 μM, OGD second series, OGD alone 44.8±[…]", "value": "55.3±3.1", "unit": "%"}, {"measurement": "effect on OGD-induced PI fluorescence", "setting": "[3]; any other concentration assessed (up to 3 μM), 60 minutes OGD", "value": "no significant effect"}, {"measurement": "EC50 in OGD model", "setting": "[3]; six-point concentration-response curve, 60 minutes OGD", "value": "could not be established"}, {"measurement": "damage in CA1 (PI fluorescence)", "setting": "[4]; 0.1 μM, 3 hours hypoxia, first set, hypoxia alone 45.1±3.5%", "value": "24.8±6.3", "unit": "%"}, {"measurement": "damage in CA1 (PI fluorescence)", "setting": "[4]; 0.1 μM, hypoxia, second set, hypoxia alone 36.4±[…]", "value": "36.7±4.2", "unit": "%"}, {"measurement": "damage in CA1 (PI fluorescence)", "setting": "[4]; 0.5 μM, hypoxia, repeated experiment, hypoxia alone 36.9+[…]", "value": "27.1±3.5", "unit": "%"}, {"measurement": "damage in CA1 (PI fluorescence)", "setting": "[4]; 5 μM, 3 hours hypoxia, first set, hypoxia alone 45.1±3.5%", "value": "3.9±1.8", "unit": "%"}, {"measurement": "concentration from which the effect reached a plateau", "setting": "[5]", "value": "≥ 0.3", "unit": "mM"}, {"measurement": "neuronal survival (LDH release)", "setting": "[5]; drugs 24 hours before and during exposure (FIG. 5)", "value": "showed effects"}, {"measurement": "damage in CA1 (PI fluorescence)", "setting": "[6]; 0.5 μM", "value": "29.1±2.9", "unit": "%"}, {"measurement": "content of HVA in striatum", "setting": "[7]; 1 mg/kg, 1 hour before sampling (FIG. 1)", "value": "elevated"}, {"measurement": "dopamine turnover", "setting": "[7]", "value": "modulated dopamine turnover but neither reached significance"}]}, {"smiles": "CC1=NN=C(c2ccc(N)cc2)c2cc3c(cc2C1)OCO3", "note": "[GYK152466, reference compound]", "values": [{"measurement": "damage in CA1 (PI fluorescence)", "setting": "[1]; 30 μM test substance, 30 μM AMPA 3 hours, AMPA alone 65.1±1.7%", "value": "14.3±2.3", "unit": "%"}, {"measurement": "damage in CA1 (PI fluorescence)", "setting": "[1]; 30 μM, pre-incubation time experiments, AMPA alone 46.5±5.0%", "value": "21.7±2.7", "unit": "%"}, {"measurement": "damage in CA1 (PI fluorescence)", "setting": "[3]; 30 μM, 60 minutes OGD, initial set, OGD alone 50.6±5.2%", "value": "36.9±3.6", "unit": "%"}]}, {"smiles": "C[C@]12N[C@H](Cc3ccccc31)c1ccccc12", "note": "[MK-801, reference compound]", "values": [{"measurement": "damage in CA1 (PI fluorescence)", "setting": "[6]; 10 μM", "value": "0.0±0.0", "unit": "%"}]}, {"smiles": "O=C(O)c1ccc(/C2=C3\\C=CC(=N3)/C(c3ccc(C(=O)O)cc3)=c3/cc/c4[n]3[Mn]([Cl])[n]3c2ccc3/C(c2ccc(C(=O)O)cc2)=C2/C=CC(=N2)\\C=4c2ccc(C(=O)O)cc2)cc1", "note": "[MnTBAP, reference compound]", "values": [{"measurement": "damage in CA1 (PI fluorescence)", "setting": "[2]; 100 μM", "value": "0.1±0.0", "unit": "%"}, {"measurement": "damage in CA1 (PI fluorescence)", "setting": "[3]; 100 μM, 60 minutes OGD, initial set, OGD alone 50.6±5.2%", "value": "0.1±0.0", "unit": "%"}, {"measurement": "damage in CA1 (PI fluorescence)", "setting": "[3]; 100 μM, OGD second series, OGD alone 44.8±[…]", "value": "0.6±0.2", "unit": "%"}, {"measurement": "damage in CA1 (PI fluorescence)", "setting": "[4]; 100 μM, 3 hours hypoxia, first set, hypoxia alone 45.1±3.5%", "value": "0.2±0.1", "unit": "%"}, {"measurement": "damage in CA1 (PI fluorescence)", "setting": "[4]; 100 μM, hypoxia, repeated experiment, hypoxia alone 36.9+[…]", "value": "0.8±0.4", "unit": "%"}, {"measurement": "damage in CA1 (PI fluorescence)", "setting": "[4]; 100 μM, hypoxia, second set, hypoxia alone 36.4±[…]", "value": "0.0±0.0", "unit": "%"}]}, {"smiles": "COc1cc2c(cc1OC)C(=O)C(CC1CCN(Cc3ccccc3)CC1)C2", "note": "(stereo not shown) [donepezil, 1-benzyl-4-((5,6-dimethoxy-1-indanon)-2-yl)methylpiperidine]", "values": [{"measurement": "dose at which peripheral side effect was shown", "setting": "[8]", "value": "≥ 7.5", "unit": "mg/kg"}, {"measurement": "dopamine turnover", "setting": "[7]", "value": "modulated dopamine turnover but neither reached significance"}, {"measurement": "DPAC/DA", "setting": "[7]; [9]", "value": "increased significantly"}, {"measurement": "HVA/DA", "setting": "[7]; [9]", "value": "increased significantly"}, {"measurement": "content of dopamine in striatum", "setting": "[7]; [9]", "value": "reduced the content of dopamine significantly"}]}]}
